Measurements as given in patent EP1336602A1, “Nitrate prodrugs able to release nitric oxide in a controlled and selective way and their use for prevention and treatment of inflammatory, ischemic and proliferative diseases” (Scaramuzzino, Giovanni, priority 2002, dated 2003).

Key:
[1] = male, Wistar, in vivo, po, 1.09 mg/kg
[2] = test system: S-nitrosohemoglobin (SNO-Hb); assay: S-nitrosohemoglobin (SNO-Hb) levels in rat blood, photolysis-chemiluminescence; format: in vivo, Sprague-Dawely rats; details: 100 mg/Kg i.p., versus endogenous levels
Procedure: A highly sensitive photolysis-chemiluminescence methodology was used. Nitric oxide, released from Hb-SNO through photolysis, was detected in a chemiluminescence spectrometer by reaction with ozone (McMahon, T. J., and Stamler, J. S. (1999) Methods Enzymol. 301, 99-114).
Blood was obtained from the left ventricle (arterial) and jugular vein (venous) of anesthetized Sprague-Dawely rats: 12 were controls and 12 were treated with 100 mg/Kg of N-[4-(5-p-tolyl-3-trifluoromethyl-1H-pyrazol-1-yl)phenylsulfonyl]-p-nitroxymethylbenzamide (Ela). Red blood cells were isolated by centrifugation at 800 g, washed three times in phosphate buffered saline at 4 °C, lysed by the addition of 4-fold excess volume of deionized water containing 0.5 mM EDTA and desalted rapidly according to the method of Penefsky at 4 °C.
In 24 rats, Hb samples were divided in two aliquots which were then treated or not treated with 10-fold excess HgCl2 which can remove the signal of Hb(Fell)NO.

Structure (SMILES) | Rat arterial blood pressure [1] [%] | S-nitrosohemoglobin (SNO-Hb) levels in rat arterial blood ([2]; arterial blood (left ventricle)) | S-nitrosohemoglobin (SNO-Hb) levels in rat venous blood ([2]; venous blood (jugular vein))
C[C@@H]1C[C@H]2[C@@H]3CCC4=CC(=O)C=C[C@]4(C)[C@@]3(F)[C@@H](O)C[C@]2(C)[C@@]1(O)C(=O)COC(=O)c1ccc(CO[N+](=O)[O-])cc1 [ECXCa, (11β,16α)-9-fluoro-11,17-dihydroxy-21-(p-nitroxymethylbenzoyloxy)-pregna-1,4-diene-3,20-dione] | 100 | – | –
Cc1ccc(-c2cc(C(F)(F)F)nn2-c2ccc(S(=O)(=O)NC(=O)c3ccc(CO[N+](=O)[O-])cc3)cc2)cc1 [Ela, N-[4-(5-p-tolyl-3-trifluoromethyl-1H-pyrazol-1-yl)phenylsulfonyl]-p-nitroxymethylbenzamide] | – | significantly increase | significantly increase
